The test has as its target T1, CbCBP (cellobiose phosphorylase) (Caldicellulosiruptor bescii, UniProt A0ABY1SBL4).
T1 construct: gene SAMN05216240_2653; C-terminal (His)6 tag, pET20b, E. coli BL21 CodonPlus-RIL; 94 kDa on SDS-PAGE, about 200 kDa native (homodimer); GH94
T1 sequence (A0ABY1SBL4 1-811): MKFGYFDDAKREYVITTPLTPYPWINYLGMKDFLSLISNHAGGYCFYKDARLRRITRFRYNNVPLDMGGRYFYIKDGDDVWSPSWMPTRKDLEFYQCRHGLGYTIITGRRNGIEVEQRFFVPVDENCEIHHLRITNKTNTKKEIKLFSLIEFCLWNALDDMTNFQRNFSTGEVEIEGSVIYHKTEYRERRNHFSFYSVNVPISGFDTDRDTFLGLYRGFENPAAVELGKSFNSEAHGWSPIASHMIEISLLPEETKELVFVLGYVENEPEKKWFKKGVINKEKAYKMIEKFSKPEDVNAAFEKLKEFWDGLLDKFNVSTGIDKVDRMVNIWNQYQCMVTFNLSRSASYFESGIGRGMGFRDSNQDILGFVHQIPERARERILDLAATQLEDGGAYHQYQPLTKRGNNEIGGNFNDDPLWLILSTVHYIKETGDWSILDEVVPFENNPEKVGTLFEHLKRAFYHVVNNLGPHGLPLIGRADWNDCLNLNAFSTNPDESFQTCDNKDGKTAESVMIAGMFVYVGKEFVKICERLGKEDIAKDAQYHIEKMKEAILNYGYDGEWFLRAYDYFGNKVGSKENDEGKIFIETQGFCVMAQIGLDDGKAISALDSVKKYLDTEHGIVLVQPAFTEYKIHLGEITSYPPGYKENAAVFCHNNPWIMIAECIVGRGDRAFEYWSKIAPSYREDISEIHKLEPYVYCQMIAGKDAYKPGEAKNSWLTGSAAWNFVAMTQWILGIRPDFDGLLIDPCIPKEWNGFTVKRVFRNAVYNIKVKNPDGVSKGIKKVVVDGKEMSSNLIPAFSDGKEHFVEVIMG
Briefly: initial velocity, D-glucose release (glucose oxidase-peroxidase), fit to ordered Bi Bi equation. The test is classed as biochemical. Conditions: phosphorolysis; substrate constant of the ordered Bi Bi rate equation with A = cellobiose, not an inhibitor constant; text states Pi binds first; MES-NaOH pH 7.0; 75 °C in Methods, 70 °C in Results. The source says:
initial velocity, D-glucose release (glucose oxidase-peroxidase), fit to ordered Bi Bi equation on CbCBP (cellobiose phosphorylase)

Consider `OC[C@H]1O[C@@H](O[C@H]2[C@H](O)[C@@H](O)C(O)O[C@@H]2CO)[C@H](O)[C@@H](O)[C@@H]1O` (stereo partly shown) [cellobiose], for which the “Ki^A” value came to 3.3 mM.

(Values after publication PMC8913831 (Scientific Reports, 2022).)
